Laboratory results from PMC6366416, “Synthesis and in vitro anticancer activity of certain novel 1-(2-methyl-6-arylpyridin-3-yl)-3-phenylureas as apoptosis-inducing agents” (Journal of Enzyme Inhibition and Medicinal Chemistry, 2019).

Experiments:
K-562 = experiment: NCI one-dose SRB growth inhibition; format: cell-based; settings: Homo sapiens, K562, 48 h, Leukemia, read-out: GI% K-562
Summary of the method: (§1)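 Run under the NCI Developmental Therapeutics Program protocol at a single dose, with 48 h drug exposure. Growth and viability read by sulforhodamine B staining.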

LOX IMVI = experiment: NCI one-dose SRB growth inhibition; format: cell-based; settings: Homo sapiens, Melanoma, 48 h, read-out: GI% LOX IMVI
Summary of the method: as §1

HCC-2998 = experiment: NCI one-dose SRB growth inhibition; format: cell-based; settings: Homo sapiens, Colon Cancer, 48 h, read-out: GI% HCC-2998
Summary of the method: as §1

SMILES	melting point	inhibition at 10 µM (K-562)	inhibition at 10 µM (LOX IMVI)	inhibition at 10 µM (HCC-2998)
Cc1nc(-c2ccc(F)cc2)ccc1NC(=O)Nc1cccc(C(F)(F)F)c1 [Compound 5a, 1-(6-(4-Fluorophenyl)-2-methylpyridin-3-yl)-3-(3-(trifluoromethyl)phenyl)urea]	223 to 225 °C	> 40%	37%	< 10%
CCOC(=O)c1ccc(NC(=O)Nc2ccc(-c3ccc(F)cc3)nc2C)cc1 [Compound 5c, Ethyl 4-(3-(6-(4-fluorophenyl)-2-methylpyridin-3-yl)ureido)benzoate]	209 to 211 °C	< 10%	24%	< 10%
Cc1nc(-c2ccc(F)cc2)ccc1NC(=O)Nc1ccc2c(c1)OCO2 [Compound 5d, 1-(Benzo[d][1, 3]dioxol-5-yl)-3-(6-(4-fluorophenyl)-2-methylpyridin-3-yl)urea]	254 to 256 °C	23%	34%	< 10%
Cc1nc(-c2ccc(Cl)cc2)ccc1NC(=O)Nc1cccc(C(F)(F)F)c1 [Compound 5e, 1-(6-(4-Chlorophenyl)-2-methylpyridin-3-yl)-3-(3-(trifluoromethyl)phenyl)urea]	241 to 242 °C	20%	< 10%	< 10%
COc1ccc(NC(=O)Nc2ccc(-c3ccc(Cl)cc3)nc2C)cc1 [Compound 5f, 1-(6-(4-Chlorophenyl)-2-methylpyridin-3-yl)-3-(4-methoxyphenyl) urea]	264 to 265 °C	13%	21%	< 10%
Cc1nc(-c2ccc(Cl)cc2)ccc1NC(=O)Nc1ccc2c(c1)OCO2 [Compound 5g, 1-(Benzo[d][1,3]dioxol-5-yl)-3-(6-(4-chlorophenyl)-2-methylpyridin-3-yl)urea]	271 to 273 °C	21%	34%	< 10%
Cc1nc(-c2cccs2)ccc1NC(=O)Nc1ccc(F)cc1 [Compound 5h, 1-(4-Fluorophenyl)-3-(2-methyl-6-(thiophen-2-yl)pyridin-3-yl)urea]	217 to 219 °C	22%	< 10%	14%
Cc1nc(-c2cccs2)ccc1NC(=O)Nc1ccc(Cl)cc1 [Compound 5i, 1-(4-Chlorophenyl)-3-(2-methyl-6-(thiophen-2-yl)pyridin-3-yl)urea]	234 to 236 °C	< 10%	< 10%	< 10%
CCOC(=O)c1ccc(NC(=O)Nc2ccc(-c3cccs3)nc2C)cc1 [Compound 5j, Ethyl 4-(3-(2-methyl-6-(thiophen-2-yl)pyridin-3-yl)ureido)benzoate]	203 to 204 °C	42%	10%	< 10%
